Reference: patent US10815252B2, “Biflavone-copper complex, preparation method and application thereof” (NANJING FORESTRY UNIVERSITY, priority 2017, dated 2020)

Assays:
[1] = Pyrogallol auto-oxidation method, free radical scavenging; type: biochemical; conditions: Tris-HCl pH 8.20, 25° C., 322 nm, read-out: IC50 to scavenge O2^−. free radical
Procedure: (§1) The free radical scavenging capability of the Ame and the Ame-Cu complex were studied by pyrogallol auto-oxidation method and ABTS method with the following steps:
(1) Pyrogallol Auto-Oxidation Method
Determination of auto-oxidation rate V0 of pyrogallol: 2 mL Tris-HCl buffer (pH=8.20) was added to a 10 mL sample tube at 25° C., 100 μL DMSO was added as a control, after adding 0.8 mL distilled water, 0.2 mL pyrogallol solution having a concentration of 2 mmol·L^−1 was added, the mixture was poured into a cuvette after mixing uniformly, the absorbance at 322 nm was measured with pure water as a blank, the A value was recorded every 10 s for a total of 4 min, linear regression was performed with t as the abscissa, and A as the ordinate, straight line slope thereof is V0, and the measurement was performed for three times to obtain an average value. […]

[2] = ABTS method, free radical scavenging; type: biochemical; conditions: 25° C., 5 min reaction, 730 nm; read-out: IC50 for scavenging ABTS^+. free radicals
Procedure: as §1
Determination of ABTS^+. free radical ion scavenging capability of the blank sample: at 25° C., 2.9 mL ABTS^+. free radical ion working solution was added into a 10 mL sample tube, 100 μL DMSO was added, after reacting for 5 min, the UV-vis spectrum was measured, and the absorption intensity A0 at 730 nm was recorded.
Determination of […]. free radical ion scavenging capability of the samples: at 25° C., 2.9 mL ABTS^+. free radical ion working solution was added into a 10 mL sample tube, 100 μL samples of different concentrations that were dissolved in DMSO were added, after reacting for 5 min, the UV-vis spectrum was measured, and the absorption intensity A1 at 730 nm was recorded, and the ABTS^+. free radical ion scavenging rate was calculated according to Formula 4. SR(%)=(1−A1/A0)×100% (Formula 4)
The ABTS^+. free radical scavenging capabilities of the Ame and the Ame-Cu complex are concentration dependent. Within a certain range, the scavenging rate is linear with the concentration. The curve of the scavenging rate and the concentration (c) is plotted in the present invention to obtain a corresponding linear equation, and the maximum half-inhibitory concentration (IC50 value) is calculated.

herring sperm DNA (fDNA) = experiment: Interaction with fDNA by UV-vis spectroscopy, fluorescence spectroscopy and viscosity method; type: binding; conditions: UV-vis, fluorescence (fDNA-EB system), viscosity
Description: UV-vis spectroscopy, fluorescence spectroscopy and viscosity method are used to study the interaction between the Ame and herring sperm DNA (fDNA), and the interaction between the Ame-Cu complex and herring sperm DNA (fDNA), to further reveal the mechanism of antitumor activity, the obtained spectra are shown in FIGS. 7-11. […] Thereby, it can be speculated that the mechanism of antitumor activity of the Ame and its complex may be that Ame or the complex thereof enters the interior of the cell and intercalates with the DNA strand to cause apoptosis. Since the interaction of the complex with DNA is stronger than of the Ame, the antitumor activity thereof is also stronger than of the Ame.

SMILES | IC50 [1] [µM] | IC50 [2] [µM] | manner of interaction with fDNA (herring sperm DNA (fDNA))
O=c1cc(-c2ccc(O)c(-c3c(O)cc(O)c4c(=O)cc(-c5ccc(O)cc5)oc34)c2)oc2cc(O)cc(O)c12 [Ame, amentoflavone] | 23.3 | 20.7 | intercalation manner
CS(C)=[O+][Cu-4]1([O+]=S(C)C)[O+]=C2C=C(c3ccc(O)cc3)Oc3c2c(cc(O)c3-c2cc(-c3cc(=O)c4c(O)cc(O)cc4o3)ccc2O)[OH+]1 [Ame-Cu complex] | 4.57 | 6.31 | intercalation manner
